Test [1] relates to CV-1. The experiment in a line: Inhibition of RXRalpha transcriptional activity in african green monkey CV1 cells co-expressing with TREpal-tkCAT at 10 uM by reporter gene assay. To be noted: Chlorocebus aethiops. Format: cell-based.
In test [2] the test system is CV-1. Put plainly: Inhibition of RXRalpha transcriptional activity in african green monkey CV1 cells co-expressing with TREpal-tkCAT by reporter gene assay. Format: cell-based. Particulars: Chlorocebus aethiops. Background: Reporter assays use an easily measured gene product as a stand-in for the process of interest.

Calls of active or inactive are those of the source. The rule behind the calls is not given here.

This is an account of results in ChEMBL document CHEMBL1177755, “Bioactive xanthones from the stems of Cratoxylum formosum ssp. pruniflorum” (J Nat Prod, 2010).

On to `COc1c(O)ccc2oc3cccc(O)c3c(=O)c12`, for which the result in the test on CV-1 [1] was Active. For the same compound, the Activity result with CV-1 [2] was “Dose-dependent effect”.
In the case of `COc1cc2oc3cc(O)c(O)c(CCC(C)(C)O)c3c(=O)c2c(O)c1CC=C(C)C`, the result with CV-1 [1] was Active. For the same compound, the Activity result in the test with CV-1 [2] was “Dose-dependent effect”.
For `COc1ccc(O)c2c(=O)c3cc(O)ccc3oc12`, in the test on CV-1 [1], the outcome was Active.
Same read-out and setting: the entry for `COc1cc2oc3cc(O)c(O)c(C/C=C(\C)CCC=C(C)C)c3c(=O)c2c(O)c1C/C=C(\C)CCC=C(C)C` is “Active”.
Take `COc1c(O)ccc2oc3c(O)ccc(O)c3c(=O)c12`: the outcome with CV-1 [1] was Active. For the same compound, the Activity result with CV-1 [2] was “Dose-dependent effect”.
Turning to `COc1cc2c(=O)c3c(O)cc(O)cc3oc2cc1O`, in the test with CV-1 [1], the result was Active.
On to `CC(C)=CCC/C(C)=C/Cc1c(O)c(O)cc2c(=O)c3c(O)c(CC=C(C)C)c(O)cc3oc12`, for which, in the test with CV-1 [1], the outcome was Active.
Regarding `CC(C)=CCc1c(O)c(CC=C(C)C)c2oc3cc(O)c(O)cc3c(=O)c2c1O`, the result in the test with CV-1 [1] was Active.
Turning to `CC(C)=CCC/C(C)=C/Cc1c(O)c(CC=C(C)C)c(O)c2c(=O)c3cc(O)c(O)cc3oc12`, the result in the test on CV-1 [1] was Active.
